Measured values as given in patent US8580776B2, “Compositions and methods for treating neurodegenerating diseases” (The Board of Trustees of the University of Illinois, priority 2007, dated 2013).
“Also recorded” adds a separate entry of the source.

What was measured:
[1] = system: EAE mice; assay: L-DOPS, Atomoxetine and combination in EAE mice (Example 13); type: in vivo; settings: from day 17 after booster MOG, tri-weekly, L-DOPS 400 mg/kg s.c. plus 125 mg/kg bensazeride i.p., Atomoxetine 20 mg/kg
Text: (§1) To assess disease severity, clinical signs were scored as follows: 0 indicated no clinical signs, 1 indicated a limp tail, 2 indicated an impaired righting of the animal, 3 indicated paresis of one hind limb, 4 indicated paresis of two hind limbs, and 5 indicated the death of the animal.
To test whether increasing NA derived from the NA precursor L-DOPS in combination with a NA reuptake inhibitor could provide benefit in EAE, C57B16 mice were immunized with MOG35-55 peptide using standard procedures as described in Example 9.

[2] = system: EAE mice; assay: L-DOPS treatment of EAE mice (Example 10); type: in vivo
Description: To test whether increased NA derived from the NA precursor L-DOPS could provide benefits in EAE, C57B16 mice were immunized with MOG35-55 peptide using standard procedures. At day 29 (FIG. 11A, arrow) after the booster MOG, 6 mice received daily injections of L-DOPS (using an intermediate dose of 200 mg/kg s.c.; plus 125 mg/kg bensazeride i.p. to block peripheral conversion to NA); control mice received saline. In the saline group, 4/6 mice were ill on day 29, and by day 36 all 6 were ill (FIG. 11A); the average clinical score increased from 1.3±0.4 (mean±se) on day 29 to 2.3±0.2 on day 37 (FIG. 11B). […] During treatment, scores of 2 of the 4 mice improved, and the average score decreased from 1.5±0.5 on day 29 to 1.2±0.4 on day 38.
as §1

[3] = system: mouse neuronal N2A cells; assay: NEP activity in N2A cells incubated with NA; type: cell-based; settings: N2A cells incubated with NA for 24 hr
Description: Comparative real time RT-PCR (or quantitative PCR, QPCR) was used to measure mRNA levels of the Aβ degrading enzymes neprilysin (Nep) and insulin degrading enzyme (IDE) in brain samples from vehicle and DSP4 treated mice (FIG. 4A). Neprilysin activity in brain extracts was assayed by monitoring proteolysis of a fluorescent substrate (FIG. 4B). To assess the effects of dose, mouse neuronal N2A cells were incubated with increasing does of NA for 24 hr after which NEP activity was measured (FIG. 4D, data is mean±sd and is from n=3 samples).
In the results shown in FIG. 4D, mouse neuronal N2A cells were incubated with NA for 24 hr after which NEP activity was measured. Data is mean±sd and is from n=3 samples.

[4] = system: primary microglia; assay: Microglial phagocytosis of FITC-labeled Aβ1-42 (FACS); type: cell-based, mouse; settings: 10 nM to 10 μM, 4 hr, FITC-Aβ1-42 150 μM
Description: The ability of NA to modulate Aβ phagocytosis, another means by which amyloid plaque burden is regulated, was tested. Primary microglia were incubated with indicated concentrations of NA (FIG. 5A) or the β-AR agonist isoproterenol (FIG. 5B), in the presence of FITC-labeled Aβ1-42 (150 μM). After 4 hr, intracellular levels of Aβ were determined as described below.
Primary murine microglial cells were generated at P1 according to standard protocols. Briefly, frontal cortices of one day old C57BL6 mice were used to prepare mixed glial cultures in T75 cm^2 flasks in DMEM containing 10% FCS and antibiotics (100 IU/mL of penicillin and 100 ug/mL of streptomycin; Sigma), and incubated at 37° C. in a humidified atmosphere containing 5% CO2. Microglia were detached from the astrocyte monolayer by gentle shaking 11-13 days after the dissection, and cultures were 95-98% Mac1 positive.
FACS analysis was used to quantify microglial phagocytosis of Aβ1-42. […] Fluorescent signals due to cell adherent Aβ were eliminated by resuspending an aliquot of cells in an equal volume of 1 mg trypan blue/mL (Merck, Darmstadt, Germany) acetate buffer to quench extracellular fluorescence. The mean fluorescence intensity (MFI) was measured on a FACScan (Becton Dickinson, Mountain View, Calif.) equipped with an argon-ion laser (excitation wavelength at 488 nm, laser power 300 mW) and a band pass filter of 530 nm. […]

[5] = system: primary neurons; assay: Aβ-induced neuronal damage in primary neurons (LDH release, FJ staining); type: cell-based; settings: LDH release and FJ staining
Description: The levels of neuronal damage, using LDH release as a neuronal damage marker, were measured as a percentage of control. C: control; Aβ: primary neurons treated with Aβ; Aβ+NA: primary neurons treated Aβ and NA; and Aβ+dbcAMP: primary neurons treated with Aβ and dbcAMP. […] The staining intensity was quantified as a percentage of control as illustrated in the graph in FIG. 9B.

[6] = system: oligodendrocyte progenitor cells (OPCs); assay: Oligosphere / OPC maturation by immunostaining; type: cell-based, mouse
Description: Initial studies were carried out to identify treatments that influence OLG maturation using primary oligodendrocyte progenitor cells (OPCs) from E13 mouse pups. The cells were isolated as E13 neurospheres, and were shifted to OLG commitment (Oligospheres) by culture in PDGFα and bFGF. E13 Oligospheres were cultured on polylysine coated slides in media (containing bFGF and PDGFα) in the presence or absence of 25 μM NA. After 2 days the cells were fixed and stained with antibody to MBP (FIGS. 12A and 12B).
Further studies were carried out in which the oligospheres were cultured on polylysine coated slides in media (containing bFGF and PDGFα) in the presence or absence of 20 μM NA. After 24 hours the cells were fixed and stained with antibodies for PDGFRa, Oligodendrocyte Marker O4 and PLP (FIGS. 13 and 14).

[7] = system: P1 OPCs; assay: QPCR of myelin genes in P1 OPCs treated with NA; type: cell-based; settings: NA versus saline
Description: Additional studies were carried out in which QPCR analysis was performed for BMPs, BMP antagonists and myelin genes on P1 OPCs treated with saline or NA. The QPCR condition and primers are as described in Example 3. For QPCR experiments, RNA levels were calculated from QPCR take-off points, normalized for RNA values obtained for GDH; the average value for the vehicle treated RNA levels was set to 1.0. Comparisons were made using unpaired T-test, and P values <0.05 were considered to be significant. (FIGS. 15A and 15B).

[8] = system: BMP2; assay: QPCR of BMP2 mRNA in primary astrocytes; type: cell-based; settings: 100 μM NA, 24 hr
Text: (§2) As shown in FIGS. 12C and 12D, BMP2 and BMP4 mRNA levels were decreased in astrocytes treated with NA. Data is mean±sd of n=2-3 experiments, and normalized to values for β-tubulin measured in the same samples.

[9] = system: BMP4; assay: QPCR of BMP4 mRNA in primary astrocytes; type: cell-based
Description: as §2
(§3) Further studies were carried out in which primary astrocytes were treated with 30 μM NA for 24 hours then mRNA levels of bone morphogenic proteins BMP2 and BMP4, Noggin, Gremlin, Follistatin and BAMBI were measured by QPCR (FIG. 16A). The results confirmed that BMP4 mRNA levels were decreased, whereas the Noggin mRNA levels were increased, in NA treated primary astrocytes (FIG. 16A).

[10] = system: Noggin; assay: Noggin mRNA (QPCR) and protein staining in primary astrocytes; type: cell-based
Description: as §3

CNCC[C@@H](Oc1ccccc1C)c1ccccc1 [Atomoxetine]
clinical scores / EAE symptoms [1]: no effect on clinical scores
clinical scores / EAE symptoms ([1]; listed as Axtomoxtine): limited benefit

N[C@H](C(=O)O)[C@H](O)c1ccc(O)c(O)c1 [L-DOPS, (−)-threo-3-(3,4-dihydroxyphenyl)-L-serine]
clinical scores in EAE mice ([2]; FIGS. 11A-11C): prevents the worsening of clinical scores
ill mice whose scores improved during treatment ([2]; L-DOPS group): 2 of the 4
incidence of disease during treatment ([2]; L-DOPS group after day 29, saline all 6 ill by day 36): did not further increase
mice ill on day 29 ([2]; L-DOPS group, first day of treatment): 4/6
average clinical score, day 38 ([2]; daily L-DOPS 200 mg/kg s.c. plus 125 mg/kg bensazeride i.p. from day 29, saline 2.3±0.2 on day 37): 1.2±0.4
average clinical score, day 29 ([2]; first day of L-DOPS 200 mg/kg s.c. plus 125 mg/kg bensazeride i.p., mean±se): 1.5±0.5
clinical scores / EAE symptoms [1]: Benefits to EAE were seen; also recorded: stabilized scores

NC[C@H](O)c1ccc(O)c(O)c1 [NA, noradrenaline]
NEP activity in cell culture [3]: increases NEP activity
accumulation of fluorescently tagged Aβ1-42 (intracellular Aβ uptake) [4]: dose dependently increased
Aβ induced damage in primary neurons [5]: reduces Aβ induced damage
OPC maturation, PDGFRa, O4 and PLP staining ([6]; 20 μM NA, 24 hours): accelerated OPC maturation
OPC maturation, PDGFa, O4 and PLP staining (figure legends) ([6]; 30 μM NA, 24 hours): induces more processes and greater a number of cells; also recorded: increased OPC maturation
OPC maturation, MBP staining ([6]; E13 oligospheres, 25 μM NA, 2 days): accelerated OPC maturation
OPC maturation by Olig1, Olig2, GALc and CGT mRNA levels [7]: increases OPC maturation
BMP2 mRNA levels [8]: decreased
BMP4 mRNA levels ([9]; 30 μM NA, 24 hours): decreased
BMP4 mRNA levels ([9]; 100 μM NA, 24 hr): decreased
Noggin protein expression (antibody staining) ([10]; NA-treated primary astrocytes): increased Noggin expression
Noggin mRNA levels ([10]; primary astrocytes, 30 μM NA, 24 hours): increased

CC(C)NCC(O)c1ccc(O)c(O)c1 (stereo not shown) [isoproterenol]
accumulation of fluorescently tagged Aβ1-42 (intracellular Aβ uptake) [4]: dose dependently increased
